Laboratory results reported in patent publication US20190125727A1, “FIXED DOSE COMBINATION FOR PAIN RELIEF WITHOUT EDEMA” (Marina Biotech, Inc., priority 2014, published 2019).
“And” between values parts separate entries of the source, which are not always exact repeats. Equal entries are not always repeated.

Key:
[1] = Incidence of edema in SYMPHONY claims / ACC registry database; type: in vivo, human
From the text: To support this study a database was created which contains: 1) Claims data from SYMPHONY DATABASE® pertaining to anti-hypertensives, Statins, COX-2's, and NSAIDS. The data span the most recent 36 months and 2) registry data from the ACC reporting Blood Pressure (systolic/diastolic), peripheral edema flags (yes, no, missing), Heart rate, LDL, Glucose Level, Ejection fraction, GFR, Height, Weight, BJVII, and the like.
SYMPHONY DATABASE® contains true patient level data—All Data Sources be it RX or JVIX claims is tied back to individual patients which is tracked and then encrypted based on first name, last name, gender, DOB and zip code to give an accurate picture of patient level informatics year over year regardless of insurance changes.
The properties for the SYMPHONY DATABASE® are: 1) Takes CELEBREX® antihypertensive, AH, Statin or NSAID or have OA, RA or some other form of arthritis, 36 months, 2) Time Frame=Jan. 1, 2012-Dec. 31, 2014 (3 years), 3) Number of files=201, 4) Size=561 GB zipped (−2.5 TB), 5) Unique Patients=162 million, 6) Patients on CELEBREX®=4.3 million, 7) Patients that have OA=16.3 million (15.4 million only OA), 8) Patients that have RA=2.3 million (1.4 million only RA).
The properties of the ACC registry are: 1) Have 3+BP readings, 2) Time Frame=Jan. 1, 2012-Dec. 31, 2014 (3 years), 3) Number of files=2, 4) Size=590 MB, 51 MB, 5) Unique Patients=1.58 million, 6) Patients with BP readings=1.58 million, 7) Patients with Edema Flag True=870 K.
The edema rate was then measured in the aforementioned database. The incidence of edema was higher for OA patients than RA, other Arthritis, or Arthritis free patients. […] Overall OA seems to be susceptible to CELEBREX® induced edema. The results confirmed the meta-analysis shown above. […]

[2] = Moore et al., cited from earlier work
clinical = settings: human, in vivo, oral, 200 mg
[3] = Table 1 of CELEBREX Package Insert; cited from earlier work
[4] = Celecoxib AUC from combined published pharmacokinetic data
[5] = Applicant's meta-analysis of reported edema rates in osteoarthritic populations by celecoxib dose; settings: 400 mg/day
[6] = no arthritis patients with CELEBREX
[7] = other arthritis patients with CELEBREX

Cc1ccc(-c2cc(C(F)(F)F)nn2-c2ccc(S(N)(=O)=O)cc2)cc1 [celecoxib]
incidence of edema ([1]; Days of Therapy 60-120): (18.1%)
incidence of edema ([1]; Days of Therapy 120-180): (19.3%)
incidence of edema ([1]; Days of Therapy 180-240): (21.6%)
incidence of edema ([1]; Days of Therapy <60): (19.4%)
incidence of edema ([1]; Days of Therapy >240): (26.7%)
cases of edema (%), OA ([1]; OA patients with CELEBREX): (6.0%)
cases of edema, OA ([1]; OA patients with CELEBREX): 254
cases of edema (%), RA ([1]; RA patients with CELEBREX): (3.3%)
cases of edema, RA ([1]; RA patients with CELEBREX): 82
cases of edema (%), No Arthritis [1, 6]: (0.4%)
cases of edema, No Arthritis [1, 6]: 451
cases of edema (%), Other Arthritis [1, 7]: (4.1%)
cases of edema, Other Arthritis [1, 7]: 1702
incidence of edema at any site, usual ([2]; clinical trials of celecoxib): about 3%
incidence of edema in two trials ([2]; two trials): 23% and 38%
AUC (clinical): 6440 ng·h/mL
patients treated that develop edema [3]: 2.1%
AUC Max. ([4]; 100 mg): 3418 ng·h/mL
AUC Med. ([4]; 100 mg): 3395 ng·h/mL
AUC Min. ([4]; 100 mg): 2465 ng·h/mL
AUC Max. ([4]; 200 mg): 6791 ng·h/mL
AUC Min. ([4]; 200 mg): 5972 ng·h/mL
edema event rate (upper limit and average) versus 100 or 200 mg/day dose [5]: more than twice as high

O=C(O)Cc1ccccc1Nc1c(Cl)cccc1Cl [diclofenac]
patients treated that develop edema [3]: 1.0%

CC(C)Cc1ccc(C(C)C(=O)O)cc1 (centres unmarked) [ibuprofen]
patients treated that develop edema [3]: 3.5%

COc1ccc2cc([C@H](C)C(=O)O)ccc2c1 [naproxen]
patients treated that develop edema [3]: 2.1%
